Laboratory results as given in patent publication US12310946B2, “Pharmaceutical composition for oral administration of edaravone and method of administering same” (MITSUBISHI TANABE PHARMA CORPORATION, priority 2020, dated 2025).
Where two headings read alike, the source gives them in different places.

Key:
[1] = Clinical Trial #12: PK after oral administration of edaravone solution and suspension; conditions: male, human, in vivo, fasting (N = 6), mean; for AUC(0-t): read-out: AUC0-24 h
Method: Whether or not there is an influence on pharmacokinetics by administering in forms of a solution and a suspension when administering edaravone orally was evaluated. Specifically, Clinical Trial #12 described below was conducted on healthy adult Japanese male subjects. Administration during the trial period was a single oral administration.
Either an edaravone solution containing 60 mg of edaravone or an edaravone suspension containing 120 mg of edaravone was orally administered to subjects in a fasting state of 10 hours or longer since the last meal intake. The 60 mg or 120 mg of edaravone was dissolved or suspended in 50 mL or 10 mL of 0.1% polyvinyl alcohol solution, respectively. The edaravone solution or suspension of the respective content was administered to each of six subjects.

[2] = Clinical study #6: PK of edaravone oral formulation (formula #3) via PEG tube in ALS patients; format: in vivo, human; conditions: for Cmax: 105 mg
Method: Pharmacokinetics of edaravone in administration of the edaravone oral formulation via a PEG tube was evaluated. Specifically, a clinical study #6 described below was conducted in ALS patients with a percutaneous endoscopic gastrostomy tube (PEG tube) (the patient group).
The edaravone oral formulation was administered via a PEG tube to the patient group in fasted conditions after a lapse of 10 hours or longer from consumption of a meal. That is, first, 100 mL of lukewarm water was injected through a PEG tube 1 hour before the administration of the edaravone oral formulation, and 10 mL of lukewarm water was injected through a PEG tube immediately before the administration. Then, the edaravone oral formulation was administered to the PEG tube, and further 10 mL of water was injected through the PEG tube three times to wash in the edaravone oral formulation. In the patient group, ALS patients who had been already administered with an edaravone intravenous infusion formulation were administered with the edaravone oral formulation via a PEG tube after a lapse of 48 hours or longer from the time of completion of the previous administration of the intravenous infusion formulation. Blood samples were each collected before the administration, and 15 minutes, 30 minutes, 1 hour, 2 hours, 4 hours, 8 hours, and 24 hours after the administration, and the concentrations of unchanged edaravone in plasma were measured. […] For the reference example, the results of the reference group in Example 4, in which the edaravone oral formulation of the same formula #3 was administered orally and blood samples were collected, were utilized.
The resulting PK parameters were corrected for body weight of each subject in the patient group adjusted to 70 kg by a proportional calculation. In addition, the results of the PK parameters after correction of the patient group are shown in individual plots as #6 in FIG. 3. A comparison was made between the patient group administered via a PEG tube in Table 10 below and the reference group administered orally in Table 9 above. […] Thus, the difference in the Cmax and the difference in the AUC before weight correction between the patient group administered via a PEG tube and the reference group administered orally seen in Table 10 below are considered due to the difference in body weight between the patient group administered via a PEG tube and the reference group administered orally, and the difference in the Cmax and the difference in the AUC after weight correction between the patient group administered via a PEG tube and the reference group administered orally seen in FIG. 3 are each considered to be within the range of error.

[3] = Oxidation of edaravone depending on pH; format: physicochemical; conditions: dependence on pH
Caco-2 cells = test: Caco-2 cell monolayer membrane permeability test
Method: Caco-2 cells were seeded on a 24-well plate, cultured at 37° C. for 21 to 23 days in a CO2 incubator, and then a Caco-2 cell monolayer membrane permeability test was conducted. After checking the membrane resistance value of the cell layer after the culture, the culture medium in the plate was replaced with HBSS (pH 7.4). […] For the control compounds, [^3H]propranolol as a high membrane permeability control and [^14C]mannitol as a low membrane permeability control were used.

[4] = Clinical study #4: PK of edaravone oral formulation (formula #2), high-fat meal 1 hour after administration vs fasted; format: in vivo, human; conditions: 100 mg oral; for partial AUC / AUC(0-inf) / Cmax / Tmax / half-life: male, human, plasma, po, 100 mg; for AUC(0-inf) / Cmax / Tmax / half-life: mean (n = 9)
Method: Effects of meal consumption 1 hour after administration of the edaravone oral formulation on the pharmacokinetics of edaravone were evaluated. Specifically, a clinical study #4 described below was conducted on the same subjects in Japanese healthy adult male subjects. In the clinical study #4, the edaravone oral formulation of the formula #2 in Table 1 above was used and administered orally once during the study period. In addition, the same high-fat meal as that used in Example 1 above was used.
As a post-administration consumption group, the same subjects in fasted conditions after a lapse of 10 hours or longer from meal consumption were orally administered with the edaravone oral formulation, and the high-fat meal was consumed 1 hour after the administration. Blood samples were each collected before the administration, and 5 minutes, 15 minutes, 30 minutes, 1 hour, 1.5 hours, 2 hours, 4 hours, 6 hours, 8 hours, 12 hours, 24 hours, 36 hours, and 48 hours after the administration, and the concentrations of unchanged edaravone in plasma were measured. The consumption of the high-fat meal 1 hour after the administration was carried out after the blood sample collection 1 hour after the administration, and a subsequent meal was not consumed until the blood sample collection 4 hours after the administration was completed. On the other hand, as a fasted group for reference, the edaravone oral formulation was administered orally to the same subjects in fasted conditions, blood samples were collected, and the concentrations of unchanged edaravone in plasma were measured in the same manner.
In addition, the AUC0-∞ after the administration of the edaravone oral formulation was evaluated separately on the results from 0 hour to 1 hour after the administration (0 to 1 h, before the consumption of a meal resumed after the administration) (AUC0-1h) and the results 1 hour after the administration (1 h to ∞ h, after the consumption of a meal resumed after the administration) (AUC1h-∞) for the post-administration consumption group (1 h before high-fat meal) and the fasted group (Fasted).

[5] = Solubility of edaravone in water and BCS classification; format: physicochemical
Method: Since 1 g of edaravone requires 500 mL of water to dissolve, 105 mg of edaravone is calculated to require 52.5 mL of water. […] Thus, edaravone is regarded as a BCS Class 1 drug with high solubility and high permeability. These findings led to a brief that edaravone is a compound whose pharmacokinetics are not affected by meal consumption. […] Not only the presence or absence of a meal but also the types of meal cause differences in effects on the pharmacokinetics of edaravone, and suitable administration timing depends on each type of meal.

[6] = after weight correction (70 kg)
[7] = human, plasma, 105 mg via PEG tube, fasted, ALS patients, mean, before weight correction
[8] = 1 h before high-fat meal vs fasted
[9] = high-fat meal 1 hour after administration vs fasted
[10] = formula #2, 1 h before high-fat meal

Cmax ([1]; Cohort S1, 60 mg, Solution): 755 ng/mL | AUC(0-t) ([1]; Cohort S1, 60 mg, Solution): 816 ng·h/mL | Cmax ([1]; Cohort S2, 120 mg, Suspension): 1740 ng/mL | AUC(0-t) ([1]; Cohort S2, 120 mg, Suspension): 2240 ng·h/mL | difference in the AUC between the patient group administered via a PEG tube and the reference group administered orally [2, 6]: 9.5% | difference in the Cmax between the patient group administered via a PEG tube and the reference group administered orally [2, 6]: 8.3% | difference in the AUC between the patient group administered via a PEG tube and the reference group administered orally ([2]; before weight correction): 33% | difference in the Cmax between the patient group administered via a PEG tube and the reference group administered orally ([2]; before weight correction): 30% | Cmax ([2]; human, plasma, 105 mg via PEG tube, ALS patients, corrected to 70 kg, read-out: Cmax after weight correction, mean value±standard error): 1580 ± 251 ng/mL | Cmax ([2]; human, plasma, 105 mg via PEG tube, fasted, ALS patients, mean, before weight correction, read-out: Cmax): 2160 ng/mL | AUC ([2]; human, plasma, 105 mg via PEG tube, ALS patients, corrected to 70 kg, read-out: AUC after weight correction, mean value±standard error): 1700 ± 228 ng·h/mL | AUC(0-inf) [2, 7]: 2340 ng·h/mL | Tmax [2, 7]: 19.8 min | permeability classification under Biopharmaceutics Classification System (Caco-2 cells; based on Caco-2 membrane permeability test): high permeability compound | change in the AUC0-1h in comparison with fasted [4, 8]: slight decrease | change in the AUC1h-∞ in comparison with fasted [4, 8]: no change | change in the AUC in comparison with fasted [4, 8]: → | change in the Cmax in comparison with fasted [4, 8]: → | decrease in the AUC in comparison with the fasted group [4, 9]: about 10.4% | decrease in the Cmax in comparison with the fasted group [4, 9]: about 17.0% | partial AUC ([4]; 1 h before high-fat meal (n = 9), read-out: AUC0-1h): 772 ± 519 ng·h/mL | partial AUC ([4]; 1 h before high-fat meal (n = 9), read-out: AUC1h-∞): 703 ± 202 ng·h/mL | partial AUC ([4]; fasted (n = 9), read-out: AUC0-1h): 890 ± 349 ng·h/mL | partial AUC ([4]; fasted (n = 9), read-out: AUC1h-∞): 756 ± 232 ng·h/mL | AUC(0-inf) [4, 10]: 1480 ng·h/mL | Cmax [4, 10]: 1500 ng/mL | Tmax [4, 10]: 36 min | half-life [4, 10]: 579 min | AUC(0-inf) ([4]; formula #2, fasted): 1650 ng·h/mL | Cmax ([4]; formula #2, fasted): 1810 ng/mL | Tmax ([4]; formula #2, fasted): 21.6 min | half-life ([4]; formula #2, fasted): 560 min | water required to dissolve 105 mg of edaravone ([5]; 105 mg of edaravone, calculated): 52.5 mL | water required to dissolve 1 g of edaravone ([5]; 1 g of edaravone): 500 mL | solubility classification ([5]; Biopharmaceutics Classification System): high solubility compound | solubility ([5]; for example, water, read-out: saturation solubility of edaravone with respect to a dispersion medium): ≤ 2000 µg/mL | BCS class ([5]; solubility and Caco-2 permeability): BCS Class 1
SMILES: CC1=NN(c2ccccc2)C(=O)C1 [Edaravone, 3-methyl-1-phenyl-2-pyrazolin-5-one]
oxidation of edaravone [3]: accelerated at a pH of 2.5 or lower and at a pH of 6.0 or higher | membrane permeability relative to high permeability control (Caco-2 cells; Caco-2, vs propranolol): equal to or higher than that of propranolol
